Data set [1] relates to Fibroblasts. Description: One-tube duplex NASBA ratio of mitochondrial RNA and chromosomal DNA in fibroblasts cultured with ddC. The format is cell-based. The protocol: In this example, the NASBA nucleic acid amplification reactions for DNA target sequences were performed in a 20 μl reaction volume and contained: 40 mM Tris-pH 8.5, 70 mM KCl, 12 mM MgCl2, 5 mM dithiotreitol, 1 mM dNTPs (each), 2 mM rNTPs (each), 0.2 μM primer (each), 0.05 μM molecular beacon, 1.5 units restriction enzyme Msp I, 375 mM sorbitol, 0.105 μg/μl bovine serum albumin, 6.4 units AMV RT, 32 units T7 RNA polymerase, 0.08 units RNAse H and input nucleic acid. The complete mixture, except the enzymes sorbitol and bovine serum albumin, was, prior to adding the enzyme mixture, incubated at 37° C. for 25 minutes and subsequently heated to 95° C. for two minutes in order to denature the DNA and to allow the primers to anneal. After cooling the mixture to 41° C., the enzyme mixture was added. The amplification took place at 41° C. for 90 minutes in a fluorimeter (CytoFluor 2000) and the fluorescent signal was measured every minute (using the filter set 530/25 nm and 485/30 nm). To achieve quantification, a dilution series of target sequence for a particular primer set was amplified and the time points at which the reactions became positive (the time to positivity, TTP) were plotted against the input amounts of nucleic acid. This way a calibration curve was created that could be used to read TTP values of reactions with unknown amounts of input and deduce the input amount. […] After five days, the cells were harvested and analyzed for an amount of chromosomal DNA (primers SnrpD p1 and SnrpD2 p2 and probe SnrpD mb) with the described NASBA protocol in the chapter “Used ingredients and general methodology” and compared with the NASBA protocol as described in this example. […]
Different ratios of mitochondrial RNA target and chromosomal DNA target in a plasmid were analyzed in this example: 2×10^3 U1a DNA/5×10^4 Mt RNA, 2×10^3 U1a DNA/2.5×10^5 Mt RNA, 2×10^3 U1a DNA/5×10^5 Mt RNA, 2×10^3 U1a DNA/2.5×10^6 Mt RNA, 2×10^3 U1a DNA/5×10^6 Mt RNA, 2×10^3 U1a DNA/10^7 Mt RNA, 2×10^3 U1a DNA/2.5×10^7 Mt RNA molecules were included. […]

The test system of data set [2] is Fibroblasts. As to the kind of experiment: Lactate-pyruvate ratio in fibroblasts cultured with ddC. The format is cell-based. The protocol: Fibroblasts were cultured in the presence of the anti-retroviral drug ddC. (30 μM) for four weeks. After that period, the cell culture continued in the presence, but also in the absence, of ddC for another six weeks. During this period of culture, part of the cells were harvested and analyzed for the ratio of lactate-pyruvate using standard methods known by persons skilled in the art.

On to `Nc1ccn([C@H]2CC[C@@H](CO)O2)c(=O)n1` [ddC], for which the “amount of mitochondrial RNA in continued culture in the absence of ddC” value with Fibroblasts [1] (ddC 30 μM eight weeks, then without ddC (week 10, 12, 14 and 16)) was “clear rebound”. Further, in the data set with Fibroblasts [1] (ddC 30 μM, after week eight, another eight weeks), the “amount of mitochondrial RNA in continued culture in the presence of ddC” value is “remains very low”. For the same compound, in the data set on Fibroblasts [1] (ddC 30 μM, eight weeks, FIG. 23), the “mitochondrial RNA of fibroblasts in the presence of ddC” value is “lose their mitochondrial RNA”. The “culture time after which a significant increase of lactate pyruvate ratio can be observed” value in the data set with Fibroblasts [2] (ddC 30 μM) is on record as “four”. Also, in the data set on Fibroblasts [2] (ddC 30 μM for four weeks, then without ddC), the “lactate-pyruvate ratio in continued culture in the absence of ddC” value is “drops to normal levels”. In addition, in the data set with Fibroblasts [2] (ddC 30 μM, FIG. 17), the “lactate pyruvate ratio in the presence of ddC” value is reported as “increases”. Besides, the “lactate-pyruvate ratio during continued culture in the presence of ddC” value in the data set with Fibroblasts [2] (ddC 30 μM, after week four, another six weeks) was “remains high”.

The values above are taken from patent US20050208549A1, “Testing endosymbiont cellular organelles and compounds identifiable therewith” (priority 2000, published 2005).
